# Reference: patent US20160089321A1, “ANTIPERSPIRANT COMPOSITIONS” (Johnson & Johnson Consumer Inc., priority 2014, published 2016)
# Assays:
# [1] = Turbidity measurement caused by gel polymerization in alkaline pH (turbidimeter); type: physicochemical; settings: for Potential to gel polymerize in an alkaline environment: summary of Table 1
# Protocol: In this test, a Hach model 2100 lab turbidimeter was used. One solution containing sodium hydroxide at pH 8.5 was prepared and each compound was tested at 10% concentration after mixing. […] The insoluble gel formed should act as an obstruction at the orifice of the sweat gland, reducing the flow of axillary perspiration.
# [2] = molecular target: T1, Bovine serum albumin (BSA) (Bos taurus, UniProt P02769); assay: In vitro active-protein interaction: BSA precipitation by the Bradford method; type: biochemical; settings: for Precipitation (BSA): screening test, 10% active solution; for Precipitation (BSA) / % BSA Precipitation: buffer pH 4.9; for % BSA Precipitation: dose-response assay
# T1 construct: add 4 g of albumin (available from Sigma-Aldrich) from bovine serum (BSA) to 2000 mL of buffer solution; purchased Sigma-Aldrich A7906; host or cells: bovine serum (natural source)
# T1 sequence (P02769 25-607): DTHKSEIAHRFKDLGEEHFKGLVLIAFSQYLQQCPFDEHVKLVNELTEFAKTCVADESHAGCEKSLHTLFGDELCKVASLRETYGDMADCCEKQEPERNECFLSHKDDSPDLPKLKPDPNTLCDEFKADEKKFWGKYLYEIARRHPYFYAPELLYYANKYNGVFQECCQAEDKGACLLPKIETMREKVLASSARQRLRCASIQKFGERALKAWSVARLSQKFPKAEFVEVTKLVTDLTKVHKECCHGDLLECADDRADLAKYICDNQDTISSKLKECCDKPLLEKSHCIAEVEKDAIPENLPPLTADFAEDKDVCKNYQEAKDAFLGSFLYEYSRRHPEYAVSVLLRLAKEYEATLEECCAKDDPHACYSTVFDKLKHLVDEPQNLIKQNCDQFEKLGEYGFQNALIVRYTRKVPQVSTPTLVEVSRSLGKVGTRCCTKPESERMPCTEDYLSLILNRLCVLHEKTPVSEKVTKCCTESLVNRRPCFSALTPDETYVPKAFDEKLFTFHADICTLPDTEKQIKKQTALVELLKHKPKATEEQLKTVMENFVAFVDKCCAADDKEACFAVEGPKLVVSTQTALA
# Protocol: Method 2: In Vitro Study to Evaluate Active-Protein Interaction
# Bovine serum albumin (BSA) was used as the reference protein to generate the calibration curve. […] The BSA granular, the BSA solution standard and Bradford reagent were all obtained from Sigma-Aldrich (Catalog Number: A7906, PO834, B6916). The buffer solution was made by adding 875 mL of 0.1 Molar sodium hydroxide (SpecSol) to 125 mL 0.1 Molar potassium dihydrogen phosphate (Merck) and its pH was adjusted to BSA isoelectric point (pH 4.9).
# 1. Prepare buffer by adding 875 mL of 0.1 Molar sodium hydroxide to 125 mL of 0.1 Molar potassium dihydrogen phosphate, adjusted to pH 4.9. This is the buffer solution used to make the active sample solution, the dose-response curve and the protein solution.
# 2. To prepare an active sample solution for initial screening, add 5 g of the active material to 50 mL of the buffer solution.
# 3. To prepare the protein solution, add 4 g of albumin (available from Sigma-Aldrich) from bovine serum (BSA) to 2000 mL of buffer solution.
# 4. To prepare the reaction solution, add 10 mL of the sample solution (step 2) to 50 mL of the protein solution.
# 5. To prepare the analytical solution, after filtration through a 0.45 μm membrane, 0.01 mL of reaction solution (step 4) to 3 mL of the Bradford reagent. Measure and record the absorbance at 595 nm. Determine the protein concentration by comparison to the standard curve.
# [3] = compound at 10% in sodium hydroxide solution pH 8.5
# [4] = mean turbidity, compound at 10% in sodium hydroxide solution pH 8.5
Compound,"Physical Observation [1, 3]","Turbidity pH 8.5 [1, 4] [NTU]",Precipitation (BSA) [2] [%],also measured
CC(O)C(=O)O.N (stereo not shown) [Ammonium lactate],Liquid,1.2,–,–
N.N.O=S(=O)(O)O [Ammonium sulfate],Liquid,1.1,–,–
CC(=O)[O-].CC(=O)[O-].[Ca+2] [Calcium acetate],–,–,5,Physical Observation ([1]; pH 8.5): Liquid; Turbidity pH 8.5 ([1]; pH 8.5): 20.0 NTU
CC(O)C(=O)[O-].CC(O)C(=O)[O-].[Ca+2] (stereo not shown) [Calcium lactate],Liquid,0.9,–,–
[Mg+2].[O-][Cl+2]([O-])[O-].[O-][Cl+2]([O-])[O-] [Magnesium chlorate],Liquid,0.4,4,–
O.O=S(=O)([O-])[O-].[Mg+2] [Magnesium sulfate 1•H2O],Liquid,0.9,11,–
O.O.O.O.O.O=S(=O)([O-])[O-].[Mg+2] [Magnesium sulfate 5•H2O],Liquid,1.5,10,–
O.O.O.O.O.O.O.O=S(=O)([O-])[O-].[Mg+2] [Magnesium sulfate 7•H2O],Liquid,1.5,12,–
O=S(=O)([O-])[O-].[Mg+2] [Magnesium sulfate Andros],Liquid,0.5,8,–
CC(=O)[O-].[Na+] [Sodium acetate],–,–,5,Physical Observation ([1]; pH 8.5): Liquid; Turbidity pH 8.5 ([1]; pH 8.5): 0.9 NTU
CC(O)C(=O)[O-].[Na+] (stereo not shown) [Sodium lactate],Liquid,0.5,–,–
O=S(=O)([O-])[O-].[Na+].[Na+] [Sodium sulfate],–,–,–,Physical Observation ([1]; pH 8.5): Liquid; Turbidity pH 8.5 ([1]; pH 8.5): 1.8 NTU
"CC(O)C(=O)[O-].CC(O)C(=O)[O-].[Zn+2] (stereo not shown) [Zinc Lactate (food), zinc lactate]",Gel Polymerization,525.5,–,Potential to gel polymerize in an alkaline environment [1]: high potential to gel polymerize
"CC(O)C(=O)[O-].CC(O)C(=O)[O-].[Zn+2] (stereo not shown) [Zinc Lactate (pharma), zinc lactate]",Gel Polymerization,538.0,–,Potential to gel polymerize in an alkaline environment [1]: high potential to gel polymerize
"O=S(=O)([O-])c1ccc(O)cc1.O=S(=O)([O-])c1ccc(O)cc1.[Zn+2] [Zinc Phenolsulfonate, zinc phenolsulfonate]",Liquid,1.8,18,% BSA Precipitation ([2]; 1% solution): 5%; % BSA Precipitation ([2]; 5% solution): −1%; % BSA Precipitation ([2]; 10% solution): 21%; % BSA Precipitation ([2]; 15% solution): 31%; Potential to be clogging agents (protein precipitation) ([2]; summary of Tables 2 and 3): demonstrated potential to be clogging agents
Aluminum chlorohydrate [reference compound],–,–,–,% BSA Precipitation ([2]; 1% solution): 24%; % BSA Precipitation ([2]; 5% solution): 56%; % BSA Precipitation ([2]; 10% solution): 79%; % BSA Precipitation ([2]; 15% solution): 95%
"aluminum sesquichlorohydrate [Aluminium Sesquichlorohydrate, reference compound]",Gel Polymerization,593.0,100,–
